Results as given in US20250368963A1, “PROXIMAL-BIASED KIDNEY ORGANOIDS” (UNIVERSITY OF SOUTHERN CALIFORNIA, priority 2024, published 2025).
Entries after “also recorded” stand apart in the source; their conditions may differ.

Columns and labels:
[1] = test system: E12.5 mouse kidney explants; assay: Mouse kidney organ culture with inhibitors, immunofluorescence; assay type: cell-based; details: mouse kidney explants cultured 48 hours with inhibitor(s)
Procedure: Mouse kidney explants and culture: Pregnant female Swiss Webster mice were euthanized on day E12.5 of pregnancy via CO2 following appropriate University of Southern California IACUC approved protocol. Embryos were removed and placed into PBS before dissecting out kidneys for explant culture as described below. Mouse kidney organ culture: Kidneys were dissected from E12.5 embryos and cultured for 48 hours at 37° C./5% CO2 in DMEM. Treatment condition culture media was initially supplemented with 20 μM LY294002, 2 μM DAPT (Tocris 2634), or both, before 48 hours of culture, following prior studies. After culture, mouse kidney explants were prepared for immunofluorescent analyses as described below for organoids.

[2] = test system: human iPSC-derived kidney organoid nephrons; assay: Whole-mount immunofluorescence quantification of organoid nephrons; assay type: cell-based
[3] = test system: HNF4A-YFP control and PB organoids; assay: DAPT treatment of HNF4A-YFP organoids after Ly29 withdrawal; assay type: cell-based, human; details: DAPT 48 hours between days 12 and 14, control and PB conditions
Procedure: To determine whether HNF4A^+ cell differentiation is Notch-signaling dependent, the study treated HNF4A-YFP control and PB organoids with DAPT for 48 hours between days 12 and 14, after Ly29 withdrawal (FIGS. 16E-16F). […] In DAPT conditions, YFP− structures still developed but were HNF1B^+/JAG1^+/HNF4A− (FIG. 16E), indicating Notch signaling is required for the transition from HNF1B^+ to HNF4A^+ cells, as anticipated. PB organoids contained more HNF4A^+ structures than other conditions, and controls formed more HNF4A^+ structures than DAPT-treated conditions (pvalues <0.01) (FIG. 16G).

[4] = test system: human iPSC-derived kidney organoids; assay: Comparison of PI3K inhibitors on kidney organoids; assay type: cell-based
Procedure: Small-molecule inhibitor screen and culture optimization: For all small molecule inhibitors used in this study, initial screens were performed on kidney organoids to determine the optimal dosage and duration of culture. […] Concentrations tested used insights from prior studies. After an ideal concentration was established, to determine optimal duration of treatment with the small molecule, separate differentiation experiments were set up with the small molecule from differentiation days 10 to 18, as well as differentiation days 12 to 18. For all optimization screens, time-course bright-field imaging was performed, and organoids were collected for whole-mount immunofluorescent analyses on differentiation day 18. […] Small-molecule inhibitor screen and culture optimization: For all small molecule inhibitors used in this study, initial screens were performed on kidney organoids to determine the optimal dosage and duration of culture. […] After an ideal concentration was established, to determine optimal duration of treatment with the small molecule, separate differentiation experiments were set up with the small molecule from differentiation days 10 to 18, as well as differentiation days 12 to 18. For all optimization screens, time-course bright-field imaging was performed, and organoids were collected for whole-mount immunofluorescent analyses on differentiation day 18.

[5] = test system: kidney organoid nephrogenic cells; assay: Single-cell RNA-sequencing of kidney organoids; assay type: cell-based, human
Procedure: Kidney organoid cell dissociation: Approximately 6 organoids from multiple independent wells of both untreated and treated (48 hour culture with 10 μM LY294002 between days 10 and 12) conditions were collected at differentiation days 10, 12, 14, and 18 for single-cell RNA-sequencing, from separate differentiation batches. The organoids were dissociated using Accumax (Stem Cell Technologies, 07921) at 37° C./5% CO2 for 35 minutes and pipetted twenty times with a P-1000 wide-bore pipette tip every 5 minutes. The dissociation was neutralized by using a 2× volume of AutoMACS Running Buffer (Miltenyi Biotec, 130-091-221). Cells were pelleted by centrifugation at 4° C. for 3 minutes at 300×g. After resuspending the pellet in 2 mL of AutoMACS Running Buffer, cell suspensions were strained through 40 μm strainer (VWR, 21008-949), washing the filter with an additional 1 mL AutoMACS. The flow-through was pelleted, again at 300×g in a 4° C. for 3 minutes. […]
SPLiT-seq single-cell RNA-sequencing data collection and analyses: SPLiT-seq cell processing. […] Fixed cells were then stored at −80° C. until all samples were ready to be processed with the Evercode WT v2 single-cell RNA-sequencing platform (Parse Biosciences, ECW02030). […]

[6] = test system: human iPSC-derived kidney organoids; assay: Bulk mRNA-sequencing of whole kidney organoids; assay type: cell-based
Procedure: mRNA-sequencing and data analyses: Whole organoid samples (3 independent biological replicates per timepoint, per condition for differentiation days 10 and 12, and 2 replicates for differentiation days 14 and 18) were prepared and purified according to the RNeasy Mini Kit (Qiagen, 74104). Purified RNA was sent to Novogene for sequencing. Reads were aligned to the hg38 Ensembl 105 annotation using STAR version 2.7.10a. A noise-reduction filter was applied to keep genes in which the maximum count in at least one sample was greater than or equal to 10. Partek Flow version 10.0 was then used to normalize these raw feature counts following the transcripts per million (TPM) normalization method. After filtering genes with TPM values greater than or equal to 25 in at least one sample, Z-score averages were calculated and heatmaps were clustered using pheatmap. Separately, gene set enrichment analyses were performed specifically on Day 12 replicate samples by first normalizing noise-reduced feature counts using the DESeq2 median ratio method, as recommended for gene set enrichment analyses. Partek Flow version 10.0 was then subsequently used for gene set enrichment analyses. Data are deposited with GEO accession number GSE264217 and will be made publicly available as of the date of publication.

[7] = test system: day 21 proximal-biased kidney organoids; assay: Single-nucleus RNA-sequencing of cisplatin-treated PB organoids; assay type: cell-based, human; details: day 21, double-dose
Procedure: Single-nucleus preparation of kidney organoids: For single-nucleus RNA-sequencing, the same number of organoids from multiple independent wells were snap-frozen in liquid nitrogen before nuclei isolation. Briefly, organoids were transferred to a 1.7 mL low binding tube, centrifuged to form a pellet, and snap-frozen in liquid nitrogen. Flash-frozen organoids were dounced in cold Nuclei EZ Lysis Buffer (Sigma, N3408) supplemented with protease inhibitor (Roche, 05892791001). Homogenization was performed using a loose pestle and tight pestle system (Sigma, P0485) with 15 loose-dounce strokes, followed by filtration through a 200 μm strainer (pluriSelect, 43-50200). The homogenate was then subjected to an additional 5 strokes with the tight pestle and incubated on ice for 5 minutes. The suspension was filtered through a 40 μm strainer (pluriSelect, 43-50040) and centrifuged at 500×g for 5 minutes at 4° C. in a swinging-bucket centrifuge. After removing the supernatant, the nuclei pellet was resuspended in just Nuclei EZ Lysis Buffer, incubated on ice for an additional 5 minutes, and centrifuged again. […]
Single-nucleus processing and sequencing: Single-nucleus RNA-sequencing libraries were generated using the 10× Genomics Chromium Next GEM Single Cell Multiome reagents (PN 1000283) following the manufacturer's protocols (10× Genomics; CG000338 Rev E). Briefly, freshly prepared single-nuclei suspensions were counted on a Countess 3 FL cell counter and approximately 9,000 nuclei per condition went through 1 hour of transposition at 37° C. followed by GEM generation and barcoding on a Chromium X machine with immediate subsequent RT reaction. cDNA was generated from 7 preAmp cycles and 8 cDNA cycles. […]
Single-nucleus RNA-sequencing analyses: Single-nucleus RNA-sequencing data was processed using Cell Ranger (v9.0.0) and the Seurat 5.2 R package. […] Feature-barcode matrices were subsequently imported into Seurat using the Read10× function. […]

[8] = test system: control and proximal-biased kidney organoids; assay: In vitro cisplatin injury assay; assay type: cell-based, human; details: for HNF4A/SOX9 cell state: single cisplatin-dose
Procedure: In vitro cisplatin injury assay: For the kidney organoid cisplatin injury assay, the study adapted an approach undertaken by two recent studies. Differentiation day 18 control and proximal-biased organoids were incubated overnight (18 hrs) at 37° C./5% CO2 in TeSR-E6 supplemented with 5 μM cisplatin (Millipore Sigma, 232120). […] Uninjured organoids were cultured with DMSO vehicle. Organoids were then processed for immunofluorescent imaging and analyses. In vitro cisplatin injury assay: For the kidney organoid cisplatin injury assay, the study adapted an approach undertaken by two recent studies. Differentiation day 18 control and proximal-biased organoids were incubated overnight (18 hours) at 37° C./5% CO2 in TeSR-E6 supplemented with 5 μM cisplatin (Millipore Sigma, 232120). Organoids recovered between days 19 and 20, before another overnight culture (18 hours) between days 20 and 21 with 5 μM cisplatin. Uninjured organoids were cultured with DMSO vehicle. Organoids were then processed for immunofluorescent imaging and analyses.

C[C@H](NC(=O)Cc1cc(F)cc(F)c1)C(=O)N[C@H](C(=O)OC(C)(C)C)c1ccccc1 [DAPT]
Hnf4a expression [1]: blocked Hnf4a expression
nephron elongation and HNF1B/HES1 upregulation ([2]; day 12, cultured with DAPT, either with or without Ly29): did not elongate or further upregulate HNF1B; also recorded: did not upregulate HNF1B or HES1
HNF4A-YFP [3]: reduced HNF4A-YFP

CS(=O)(=O)N1CCN(Cc2cc3nc(-c4cccc5[nH]ncc45)nc(N4CCOCC4)c3s2)CC1 [GDC-0941]
efficacy relative to LY294002 ([4]; FIG. 11): slightly less efficacy than LY294002
proximal-biasing phenotype of PI3K inhibition ([4]; second, structurally different PI3K inhibitor): confirmed

O=c1cc(N2CCOCC2)oc2c(-c3ccccc3)cccc12 [Ly29, LY294002]
share of all HNF4A+ cells that originated from the PB condition ([5]; days 12, 14, 18 integrated): 72.7%
share of all HNF4A+ proximal tubule precursors that originated from the PB condition ([5]; scaled for total cell numbers): 70.8%
HNF1B expression upregulated ([6]; RNA-sequencing, day 12, 48 hr treatment, vs control): 2.88 fold
increase in JAG1 expression ([6]; RNA-sequencing, day 12, treated days 10-12, vs control): 1.78 fold
increase in HNF4A transcript levels ([6]; bulk RNA-sequencing, day 18, vs controls): 2.31 fold
increase in HNF4G transcript levels ([6]; bulk RNA-sequencing, vs controls): 1.72 fold
HNF4A expression at day 12 ([6]; day 12, not detected): < 1.7 TPM
HNF1B+ nephron size increase ([2]; day 12 organoids, vs controls): 1.64 fold
JAG1+ nephron size increase ([2]; day 12 organoids, vs controls): 2.36 fold
abundance of HNF1B within each nephron, increase ([2]; day 12 organoids, vs controls): 1.22 fold
sum total area of HNF4A+ organoid nephron segments, increase ([2]; day 18, n=3 organoids, vs controls): 2.83 fold
average size of individual HNF4A+ segments, increase ([2]; day 18 organoids, vs controls): 1.30 fold
total number of HNF4A+ segments per organoid, increase ([2]; day 18 organoids, vs controls): 4.02 fold

N.N.[Cl][Pt][Cl] [cisplatin]
HAVCR1 and SOX9 detection in injured cells ([7]; vs uninjured): higher detection
KRT17 detection ([7]; proximal subset): exclusively detected in the injured population
cells positive for injury markers that originated from the injured population ([7]; proximal subset): approximately 75%
tubular integrity and apicobasal polarity ([8]; ATP1A1 and LAMB1 distribution, injured nephrons): loss of tubular integrity and apicobasal polarity
SOX9 response to injury ([8]; PB kidney organoid nephrons, double dose): activated SOX9
correlation of HNF4A protein levels with γH2AX (r) ([8]; cisplatin-injured PB nephrons, day 21): −0.67
sensitivity of PB nephrons ([8]; day 18, 5 μM, 72 hrs): sensitive
uninterrupted tubular lumens longer in uninjured samples ([8]; day 21 PB organoids, uninjured vs injured): 2.82 fold
KIM1/HAVCR1 protein abundance higher in PB organoid nephrons ([8]; day 21 following injury, PB vs control organoid nephrons): 1.56 fold
HNF4A/SOX9 cell state ([8]; 1 day post-injury): HNF4AHIGH/SOX9LOW
HNF4A/SOX9 cell state ([8]; 3 days post-injury): HNF4AMED/SOX9MED
HNF4A/SOX9 cell state ([8]; 6 days post-injury): HNF4ALOW/SOX9HIGH
KIM1/HAVCR1 in HNF4A+ PB nephron cells ([8]; two staggered doses 5 μM, assayed 3 days after initial injury, PB organoids): strong detection
KIM1/HAVCR1 in injured control organoids ([8]; two staggered doses 5 μM, control organoids): sparse
